Laboratory results taken from ChEMBL document CHEMBL5506027, “Discovery of a Novel and Potent Cyclin-Dependent Kinase 8/19 (CDK8/19) Inhibitor for the Treatment of Cancer” (J Med Chem, 2024).

Tests used:
CDK8/Cyclin C = CDK8/Cyclin C (Homo sapiens, UniProt P49336); test: Displacement of tracer 236 from CDK8/cyclin C (unknown origin) preincubated for 15 mins followed by tracer addition and measured after 60 mins by FRET based lanthascreen assay; assay type: protein-complex assay
MV4-11 = test: Antiproliferative activity against human MV4-11 cells incubated for 5 days by CellTiter-Glo luminescent cell viability assay; assay type: functional, cell-based; conditions: MV4-11, 120 h

Sequence of CDK8/Cyclin C (P49336 whole entry): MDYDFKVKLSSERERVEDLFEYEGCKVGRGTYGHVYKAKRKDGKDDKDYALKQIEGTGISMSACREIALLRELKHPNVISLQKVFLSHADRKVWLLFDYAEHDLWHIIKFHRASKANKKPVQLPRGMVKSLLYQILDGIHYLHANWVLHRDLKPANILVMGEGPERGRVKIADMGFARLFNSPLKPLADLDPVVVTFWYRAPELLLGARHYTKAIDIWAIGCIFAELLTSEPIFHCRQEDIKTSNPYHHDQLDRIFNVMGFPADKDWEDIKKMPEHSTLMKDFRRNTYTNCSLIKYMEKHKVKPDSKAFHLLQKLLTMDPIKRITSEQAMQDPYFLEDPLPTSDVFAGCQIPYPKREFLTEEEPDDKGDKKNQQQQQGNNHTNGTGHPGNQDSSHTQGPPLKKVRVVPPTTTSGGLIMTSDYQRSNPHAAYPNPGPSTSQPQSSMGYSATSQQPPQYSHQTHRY
Sequence of CDK8/Cyclin C (P24863 whole entry, further chain): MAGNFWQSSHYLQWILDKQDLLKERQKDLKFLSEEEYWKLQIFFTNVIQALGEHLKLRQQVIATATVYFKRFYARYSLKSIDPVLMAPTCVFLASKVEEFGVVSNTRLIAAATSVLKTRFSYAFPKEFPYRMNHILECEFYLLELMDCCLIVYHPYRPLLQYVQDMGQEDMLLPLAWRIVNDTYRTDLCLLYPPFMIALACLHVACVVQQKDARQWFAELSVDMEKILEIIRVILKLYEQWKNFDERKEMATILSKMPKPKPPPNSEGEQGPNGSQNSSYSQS

Row | SMILES | IC50 (CDK8/Cyclin C) | IC50 (MV4-11)
1 | Clc1c(Br)c(Br)cc2c1nc(N1CCNCC1)n2C1CCOCC1 | 91 nM | > 1000 nM
2 | Cc1c(Br)c(Br)c(C)c2c1nc(N1CCNCC1)n2C1CCCC1 | 139 nM | > 1000 nM
3 | Cc1c(Br)c(Br)cc2c1nc(N1CCNCC1)n2C1CCCC1 | 36.3 nM | 421 nM
4 | Brc1cc2c(nc(N3CCNCC3)n2C2CCOCC2)c(C2CC2)c1Br | 48.6 nM | > 1000 nM
5 | Brc1cc2nc(N3CCNCC3)n(C3CCOCC3)c2cc1Br | 166 nM | 526 nM
6 | NC1CCN(c2nc3c(C(F)F)c(Br)c(Br)cc3n2C2CCOCC2)CC1 | 35 nM | 188 nM
7 | Cc1c(Br)c(Br)cc2c1nc(N1CCNCC1)n2C1CC2(COC2)C1 | > 1000 nM | 795 nM
8 | C=Cc1c(Br)c(Br)cc2c1nc(N1CCNCC1)n2C1CCOCC1 | 33.6 nM | 360 nM

Stronger by IC50 (CDK8/Cyclin C), values ahead:

Row | IC50 (CDK8/Cyclin C) | IC50 (MV4-11) | SMILES
9 | 20 nM | 33.8 nM | N[C@@H]1CCN(c2nc3c(C(F)F)c(Br)c(Br)cc3n2C2CCOCC2)C1
10 | 16.7 nM | 478 nM | Cc1c(Br)c(Br)cc2c1nc(N1CCNCC1)n2C1CCCOC1 (stereo not given)
11 | 11.2 nM | 146 nM | Cc1c(Br)c(Br)cc2c1nc(N1CCNCC1)n2[C@H]1CC[C@H](O)CC1
12 | 10.8 nM | 72.5 nM | C#Cc1c(Br)c(Br)cc2c1nc(N1CCNCC1)n2C1CCOCC1
13 | 7.9 nM | 39.4 nM | Cc1c(Br)c(Br)cc2c1nc(N1CCNCC1)n2C1CCOCC1
14 | 6.5 nM | 32.7 nM | OCCN1CCN(c2nc3c(C(F)F)c(Br)c(Br)cc3n2C2CCOCC2)CC1
15 | 6.4 nM | 152 nM | CN1CCN(c2nc3c(C(F)F)c(Br)c(Br)cc3n2C2CCOCC2)CC1
